Results published in US10759791B2, “Mammalian and bacterial nitric oxide synthase inhibitors” (Northwestern University, priority 2014, dated 2020).
“And” between values parts separate entries of the source, which are not always exact repeats. Identical values can stand only once. Like-named read-outs stand apart in the source and are kept apart here. Marks after values point to notes of the source that are not given here. Values belong to the compound of their own block, whether it stands above or below them.

What was measured:
[1] = target: rat nNOS (Rattus norvegicus (Rat), UniProt P29476); assay: Hemoglobin capture assay, Ki (Example 159); assay type: biochemical
[2] = target: human nNOS (Homo sapiens (Human), UniProt P29475); assay: Hemoglobin capture assay, Ki (Example 159); assay type: biochemical
[3] = target: human eNOS (Homo sapiens (Human), UniProt P29474); assay: Hemoglobin capture assay, Ki (Example 159); assay type: biochemical
[4] = not given; remark: listed apart in the source
[5] = target: CYP2B6 (Homo sapiens (Human), UniProt P20813); assay: in vitro; conditions: microsomes, pH 7.4
[6] = target: T1, CYP2C8 (Homo sapiens (Human), UniProt P10632); assay: in vitro; conditions: microsomes, pH 7.4
T1 sequence (P10632 whole entry): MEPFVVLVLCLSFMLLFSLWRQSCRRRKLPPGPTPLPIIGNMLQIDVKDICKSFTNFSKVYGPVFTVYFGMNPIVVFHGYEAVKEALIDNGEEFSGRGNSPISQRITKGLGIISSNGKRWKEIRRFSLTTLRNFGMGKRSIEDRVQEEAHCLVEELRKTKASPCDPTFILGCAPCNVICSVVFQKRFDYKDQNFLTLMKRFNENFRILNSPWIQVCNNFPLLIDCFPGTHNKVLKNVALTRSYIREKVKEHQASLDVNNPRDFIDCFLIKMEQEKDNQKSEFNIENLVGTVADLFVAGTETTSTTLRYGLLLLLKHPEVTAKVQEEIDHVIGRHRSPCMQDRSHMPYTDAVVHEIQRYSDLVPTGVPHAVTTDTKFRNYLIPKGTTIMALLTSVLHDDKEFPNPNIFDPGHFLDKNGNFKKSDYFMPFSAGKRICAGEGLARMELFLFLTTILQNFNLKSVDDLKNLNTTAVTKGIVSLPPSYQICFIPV

[7] = target: CYP2C9 (Homo sapiens (Human), UniProt P11712); assay: in vitro; conditions: microsomes, pH 7.4
CYP2C9, sequence (P11712 whole entry): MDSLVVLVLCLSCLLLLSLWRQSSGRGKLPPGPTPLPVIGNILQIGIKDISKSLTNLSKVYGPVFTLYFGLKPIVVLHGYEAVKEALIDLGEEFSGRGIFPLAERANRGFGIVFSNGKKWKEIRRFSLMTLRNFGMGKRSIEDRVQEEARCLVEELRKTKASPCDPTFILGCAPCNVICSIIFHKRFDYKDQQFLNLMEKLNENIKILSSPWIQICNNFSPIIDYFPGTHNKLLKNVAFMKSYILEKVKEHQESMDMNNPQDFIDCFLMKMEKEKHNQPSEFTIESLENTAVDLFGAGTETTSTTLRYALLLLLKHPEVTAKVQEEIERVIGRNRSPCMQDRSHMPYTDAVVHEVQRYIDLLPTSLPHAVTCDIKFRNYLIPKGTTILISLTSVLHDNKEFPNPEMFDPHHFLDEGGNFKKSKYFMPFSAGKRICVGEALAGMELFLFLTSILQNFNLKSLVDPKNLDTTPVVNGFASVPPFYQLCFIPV

[8] = in vitro; conditions: human, microsomes, pH 7.4
[9] = in vitro; conditions: human, pH 7.4
[10] = target: CYP1A2 (Homo sapiens (Human), UniProt P05177); assay: CYP inhibition assay, human liver microsomes
CYP1A2, sequence (P05177 whole entry): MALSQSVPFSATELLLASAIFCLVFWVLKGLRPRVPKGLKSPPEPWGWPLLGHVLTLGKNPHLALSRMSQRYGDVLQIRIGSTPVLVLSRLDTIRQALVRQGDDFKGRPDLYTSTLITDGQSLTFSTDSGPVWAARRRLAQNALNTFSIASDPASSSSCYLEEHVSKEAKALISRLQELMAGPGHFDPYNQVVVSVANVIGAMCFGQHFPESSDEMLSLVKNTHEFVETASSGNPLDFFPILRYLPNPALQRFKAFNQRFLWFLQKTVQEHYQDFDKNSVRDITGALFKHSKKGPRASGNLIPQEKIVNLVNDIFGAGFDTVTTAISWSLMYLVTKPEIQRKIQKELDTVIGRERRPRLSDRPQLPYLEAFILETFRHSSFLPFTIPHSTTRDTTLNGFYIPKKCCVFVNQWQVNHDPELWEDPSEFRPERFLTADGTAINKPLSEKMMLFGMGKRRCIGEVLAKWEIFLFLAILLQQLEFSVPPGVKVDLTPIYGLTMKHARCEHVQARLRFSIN

[11] = target: CYP2D6 (Homo sapiens (Human), UniProt P10635); assay: CYP inhibition assay, human liver microsomes; conditions: pH 7.4
CYP2D6, sequence (P10635 whole entry): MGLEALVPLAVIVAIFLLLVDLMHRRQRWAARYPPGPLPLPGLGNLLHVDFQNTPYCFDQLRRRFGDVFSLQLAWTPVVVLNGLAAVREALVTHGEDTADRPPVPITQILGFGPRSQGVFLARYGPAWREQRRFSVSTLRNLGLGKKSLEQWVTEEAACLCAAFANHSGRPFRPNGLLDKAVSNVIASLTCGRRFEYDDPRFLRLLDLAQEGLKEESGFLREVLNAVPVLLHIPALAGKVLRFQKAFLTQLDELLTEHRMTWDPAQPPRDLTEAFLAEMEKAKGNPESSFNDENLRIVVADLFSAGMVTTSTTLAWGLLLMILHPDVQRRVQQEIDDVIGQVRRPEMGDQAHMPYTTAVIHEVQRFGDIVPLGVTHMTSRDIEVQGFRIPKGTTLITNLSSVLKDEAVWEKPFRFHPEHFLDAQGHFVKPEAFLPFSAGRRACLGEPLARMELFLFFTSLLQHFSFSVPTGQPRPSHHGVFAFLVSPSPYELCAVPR

[12] = target: bovine eNOS (Bos taurus (Bovine), UniProt P29473); assay: Hemoglobin capture assay, Ki (Example 159); assay type: biochemical
[13] = target: bsNOS (Bacillus subtilis (strain 168), UniProt O34453); assay: Imidazole displacement, spectral binding constant KS; conditions: 50 μM H4B
bsNOS, sequence (O34453 whole entry): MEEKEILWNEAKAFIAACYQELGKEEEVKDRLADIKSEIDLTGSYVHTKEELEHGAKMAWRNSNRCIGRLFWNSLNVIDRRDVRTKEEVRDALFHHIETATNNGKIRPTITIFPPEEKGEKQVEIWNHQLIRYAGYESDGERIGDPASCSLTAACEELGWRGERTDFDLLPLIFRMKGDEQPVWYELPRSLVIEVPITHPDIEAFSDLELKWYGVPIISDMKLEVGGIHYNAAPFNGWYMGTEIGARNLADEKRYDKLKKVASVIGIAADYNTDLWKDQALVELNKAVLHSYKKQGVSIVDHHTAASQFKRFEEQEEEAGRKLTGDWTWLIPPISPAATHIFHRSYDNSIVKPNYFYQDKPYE

[14] = target: T1, CYP2C8; conditions: 10 μM
[15] = human, microsomes, 0 h, 1 μM, pH 7.4

SMILES: Cc1cc(N)nc(CCc2cncc(N3CCOCC3)c2)c1 [Compound 14c, 4-Methyl-6-(2-(5-morpholinopyridin-3-yl)ethyl)pyridin-2-amine]
Ki [1]: 547 nM | Selectivity n/i ([1]; rat nNOS vs murine iNOS): 21 | Ki [2]: 862 nM | Selectivity n/e (human) ([2]; human nNOS vs human eNOS): 49 | Ki [3]: 42.6 µM

SMILES: CNCCCc1cncc(CCc2cc(C)cc(N)n2)c1 [Compound 14j, 4-Methyl-6-(2-(5-(3-(methylamino)propyl)pyridin-3-yl)ethyl)pyridin-2-amine]
% Remaining, 90 minutes (−NADPH) (1 μM): 78^b % and 78% | CLh, int (1 μM): 10.4 mL/min/kg | % Remaining, 90 minutes (Buffer) (1 μM, heat inactivated microsomes minus NADPH): 95^b % and 95% | % of the compound lost (1 μM, in 60 min in the absence of NADPH or in 90 min in the presence of NADPH): 23% | Percentage in HLM, Minus NADPH, 0 min [15]: 100% | Percentage in HLM, Plus NADPH, 0 min [15]: 100% | Percentage in HLM, Plus NADPH, 45 min (human, microsomes, […], 1 μM, pH 7.4): 87% | Percentage in HLM, Heat inactivated microsomes, 0 min (minus NADPH (buffer control)): 100% | % compound remaining at 4 h ([4]; 37° C.): 90% | inhibition at 10 µM [5]: 8% | inhibition at 10 µM [6]: 2% | inhibition at 10 min, 10 µM [7]: 0% | half-life at 1 μM [8]: > 60 min | recovery at 4 h, 5 μM [9]: 91% | inhibition at 10 min, 10 µM ([10]; human, microsomes, pH 7.4): 9% | inhibition at 10 min, 10 µM [11]: 6%

Ki [12]: 16.6 µM | Ki [2]: 37 nM | Ki [3]: 39.5 µM
SMILES: Cc1cc(N)nc(CCc2cncc(CCCN(C)C)c2)c1 [Compound 14k, 6-(2-(5-(3-(Dimethylamino)propyl)pyridin-3-yl)ethyl)-4-methylpyridin-2-amine]

SMILES: COCCCC/C(=N\OCCN)c1ccc(C(F)(F)F)cc1 [Fluvoxamine, reference compound]
% inhibition CYP1A2 ([10]; 10 μM): 95%

SMILES: NC(=NCCC[C@H](N)C(=O)O)NO [NOHA, N-omega-hydroxy-L-arginine]
fold difference in binding (KS) in presence vs absence of H4B [13]: 1.2 fold

SMILES: O=c1c(O)c(-c2ccc(O)c(O)c2)oc2cc(O)cc(O)c12 [Quercetin]
% inhibition CYP2C8 [14]: 95%

SMILES: CC(=O)CC(c1ccccc1)c1c(O)c2ccccc2oc1=O (centres unmarked) [Warfarin, reference compound]
% compound remaining at 4 h ([4]; human, plasma, 4 h, 5 μM): 94% | recovery at 4 h, 5 μM ([9]; human plasma): 100%
